PubChem BioAssay AID2060894 (Molecular Pharmacology Branch, DTP, NCI, 2025)
“And” between values parts separate entries of the source, which are not always exact repeats. Identical values can stand only once.

System: K12877-001-R-J1-PDC complex spheroid viability
Assay: Anticancer human tumor K12877-001-R-J1-PDC patient-derived lung adenocarcinoma cell line growth inhibition [RAS]
Conditions: for viability, T/C: stronger effect = lower value
Summary of the method: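 Multi-cell-type spheroids: tumor cells plus HUVEC endothelial cells and mesenchymal stem cells. RAS-pathway inhibitors were combined with targeted agents, each dosed in half-log steps down from clinical Cmax, or from 10 microM when Cmax was unknown.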

[1] = curve of first compound, second compound 0.000949 µM
[2] = curve of first compound, second compound 0.003 µM
[3] = curve of first compound, second compound 0.00949 µM
[4] = curve of first compound, second compound 0.03 µM
[5] = curve of first compound, second compound 0.0949 µM
[6] = curve of first compound, second compound 0.3 µM
[7] = second compound 0.000949 µM, first compound 0.0316 µM
[8] = second compound 0.000949 µM, first compound 0.1 µM
[9] = second compound 0.003 µM, first compound 0.0316 µM
[10] = second compound 0.003 µM, first compound 0.1 µM
[11] = second compound 0.00949 µM, first compound 0.0316 µM
[12] = second compound 0.00949 µM, first compound 0.1 µM
[13] = second compound 0.03 µM, first compound 0.0316 µM
[14] = second compound 0.03 µM, first compound 0.1 µM
[15] = second compound 0.0949 µM, first compound 0.0316 µM
[16] = second compound 0.0949 µM, first compound 0.1 µM
[17] = second compound 0.3 µM, first compound 0.0316 µM
[18] = second compound 0.3 µM, first compound 0.1 µM
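Also: spheroids exposed to agents for one week before readout.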
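For viability, T/C in this document: tumour cells co-cultured with HUVEC and mesenchymal stem cells in spheroids.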

`CCn1c(-c2cccnc2C(C)OC)c2c3cc(ccc31)N1CCOC(CC(NC(=O)C(C(C)C)N(C)C(=O)C3(F)CCN(C(=O)C#CC(C)(C)N(C)C)CC3)C(=O)N3CCCC(N3)C(=O)OCC(C)(C)C2)C1` (stereo not drawn) was tested, and the viability, T/C (compound 0.000949 µM) was 86.3% [middle of 8 runs], the viability, T/C (compound 0.003 µM) was 81.2% [middle of 8 runs] and the viability, T/C (compound 0.00949 µM) was 79.2% [middle of 8 runs]. The viability, T/C (compound 0.03 µM) was 79% [middle of 8 runs], the viability, T/C (compound 0.0949 µM) was 72.1% [middle of 8 runs] and the viability, T/C (compound 0.3 µM) was 72.7% [middle of 8 runs]. It also gave an IC50 (compound alone, run of 08/20/2024) greater than 300 nM.

`CC(=O)OC12COC1CC(O)C1(C)C(=O)C(O)C3=C(C)C(OC(=O)C(O)C(NC(=O)OC(C)(C)C)c4ccccc4)CC(O)(C(OC(=O)c4ccccc4)C21)C3(C)C` (stereo not drawn) + CCn1c(-c2cc(N3CCN(C)CC3)cnc2C(C)OC)c2c3cc(ccc31)-c1csc(n1)CC(NC(=O)C1CC1C)C(=O)N1CCCC(N1)C(=O)OCC(C)(C)C2 showed an IC50 [1] of less than 31.6 nM, an IC50 [2] of less than 31.6 nM and an IC50 [3] of less than 31.6 nM. The IC50 [4] was less than 31.6 nM, the IC50 [5] was less than 31.6 nM and the IC50 [6] was less than 31.6 nM. The viability, T/C [7] was 7.37%, the viability, T/C [8] was 5.79% and the viability, T/C (second compound 0.000949 µM, first compound 0.316 µM) was 4.69%. It also gave a viability, T/C (second compound 0.000949 µM, first compound 1 µM) of 5.58%, a viability, T/C (second compound 0.000949 µM, first compound 3.16 µM) of 7.53% and a viability, T/C (second compound 0.000949 µM, first compound 10 µM) of 12.1%. The viability, T/C [9] was 5.77%, the viability, T/C [10] was 4.36% and the viability, T/C (second compound 0.003 µM, first compound 0.316 µM) was 3.51%. For the same molecule, the viability, T/C (second compound 0.003 µM, first compound 1 µM) was 4.48%, the viability, T/C (second compound 0.003 µM, first compound 3.16 µM) was 5.26% and the viability, T/C (second compound 0.003 µM, first compound 10 µM) was 14%. It also gave a viability, T/C [11] of 5.17%, a viability, T/C [12] of 4.24% and a viability, T/C (second compound 0.00949 µM, first compound 0.316 µM) of 3.37%. The viability, T/C (second compound 0.00949 µM, first compound 1 µM) was 3.68%, the viability, T/C (second compound 0.00949 µM, first compound 3.16 µM) was 4.57% and the viability, T/C (second compound 0.00949 µM, first compound 10 µM) was 12.9%. For the same molecule, the viability, T/C [13] was 4.63%, the viability, T/C [14] was 2.99% and the viability, T/C (second compound 0.03 µM, first compound 0.316 µM) was 3.02%. For the same molecule, the viability, T/C (second compound 0.03 µM, first compound 1 µM) was 3.05%, the viability, T/C (second compound 0.03 µM, first compound 3.16 µM) was 4.55% and the viability, T/C (second compound 0.03 µM, first compound 10 µM) was 10.7%. For the same molecule, the viability, T/C [15] was 4.19%, the viability, T/C [16] was 2.73% and the viability, T/C (second compound 0.0949 µM, first compound 0.316 µM) was 2.45%. The viability, T/C (second compound 0.0949 µM, first compound 1 µM) was 2.46%, the viability, T/C (second compound 0.0949 µM, first compound 3.16 µM) was 3.56% and the viability, T/C (second compound 0.0949 µM, first compound 10 µM) was 9.41%. The viability, T/C [17] was 3.57%, the viability, T/C [18] was 2.99% and the viability, T/C (second compound 0.3 µM, first compound 0.316 µM) was 2.53%. It also gave a viability, T/C (second compound 0.3 µM, first compound 1 µM) of 2.8%, a viability, T/C (second compound 0.3 µM, first compound 3.16 µM) of 4.22% and a viability, T/C (second compound 0.3 µM, first compound 10 µM) of 9.04%.

`CC(C)n1nc(-c2ccc3oc(N)nc3c2)c2c(N)ncnc21` + CCn1c(-c2cc(N3CCN(C)CC3)cnc2C(C)OC)c2c3cc(ccc31)-c1csc(n1)CC(NC(=O)C1CC1C)C(=O)N1CCCC(N1)C(=O)OCC(C)(C)C2 showed an IC50 [1] of 28.4 nM, an IC50 [2] of 23.4 nM and an IC50 [3] of 17.7 nM. For the same molecule, the IC50 [4] was 13.9 nM, the IC50 [5] was 9.11 nM and the IC50 [6] was 6.13 nM. The viability, T/C (second compound 0.000949 µM, first compound 0.000316 µM) was 73.8%, the viability, T/C (second compound 0.000949 µM, first compound 0.001 µM) was 74.5% and the viability, T/C (second compound 0.000949 µM, first compound 0.00316 µM) was 95.7%. It also gave a viability, T/C (second compound 0.000949 µM, first compound 0.01 µM) of 104%, a viability, T/C [7] of 46.1% and a viability, T/C [8] of 24.8%. The viability, T/C (second compound 0.003 µM, first compound 0.000316 µM) was 71.2%, the viability, T/C (second compound 0.003 µM, first compound 0.001 µM) was 74% and the viability, T/C (second compound 0.003 µM, first compound 0.00316 µM) was 69.9%. It also gave a viability, T/C (second compound 0.003 µM, first compound 0.01 µM) of 90.8%, a viability, T/C [9] of 40.6% and a viability, T/C [10] of 22.1%. For the same molecule, the viability, T/C (second compound 0.00949 µM, first compound 0.000316 µM) was 64.1%, the viability, T/C (second compound 0.00949 µM, first compound 0.001 µM) was 65.4% and the viability, T/C (second compound 0.00949 µM, first compound 0.00316 µM) was 76.6%. For the same molecule, the viability, T/C (second compound 0.00949 µM, first compound 0.01 µM) was 75.4%, the viability, T/C [11] was 29.3% and the viability, T/C [12] was 17.3%. It also gave a viability, T/C (second compound 0.03 µM, first compound 0.000316 µM) of 77.1%, a viability, T/C (second compound 0.03 µM, first compound 0.001 µM) of 92.2% and a viability, T/C (second compound 0.03 µM, first compound 0.00316 µM) of 110%. The viability, T/C (second compound 0.03 µM, first compound 0.01 µM) was 61.1%, the viability, T/C [13] was 28% and the viability, T/C [14] was 16.2%. The viability, T/C (second compound 0.0949 µM, first compound 0.000316 µM) was 103%, the viability, T/C (second compound 0.0949 µM, first compound 0.001 µM) was 102% and the viability, T/C (second compound 0.0949 µM, first compound 0.00316 µM) was 76.5%. It also gave a viability, T/C (second compound 0.0949 µM, first compound 0.01 µM) of 49.1%, a viability, T/C [15] of 22.3% and a viability, T/C [16] of 13.6%. For the same molecule, the viability, T/C (second compound 0.3 µM, first compound 0.000316 µM) was 79.1%, the viability, T/C (second compound 0.3 µM, first compound 0.001 µM) was 92.5% and the viability, T/C (second compound 0.3 µM, first compound 0.00316 µM) was 60.3%. For the same molecule, the viability, T/C (second compound 0.3 µM, first compound 0.01 µM) was 40.3%, the viability, T/C [17] was 19.3% and the viability, T/C [18] was 11.7%.

For `CC(C)NCC(C(=O)N1CCN(c2ncnc3c2C(C)CC3O)CC1)c1ccc(Cl)cc1` (stereo not drawn), the viability, T/C (compound 0.0316 µM) was 107% and 110% (2×) and 97.4% and the viability, T/C (compound 0.1 µM) was 102% [middle of 4 runs].
